# System: B. plicatilis rotifer
# Assay: Rotifer feeding rate toxicity test (fluosphere ingestion measured by laser fluorescence capillary device)
# Type: in vivo, Brachionus plicatilis
# Protocol: Water quality monitoring using rotifers was performed using a capillary tube with an internal diameter of 70 μm, a narrow band, 635 nm, 3 mW diode laser with a beam diameter of 40 μm was used. Interference filters were selected to transmit 12% at 670 nm (20 nm FWM), and 10^−6 at all other wavelengths.
# 1. A live B. plicatilis rotifer culture was obtained from Aqua-Farms, Fla. These rotifers were chosen because they are easy to raise, and the influence of toxic samples on their feeding, reproduction, and death rates have been studied extensively. The average concentration of rotifers in a 100 ml vial was counted using five 20 μl samples examined under a 50× microscope. […]
# 2. Two samples of 8 ml each were used to make the feeding rate measurements, a reference sample and test sample. These two vials were filled with the 500 rotifers/ml reference solution.
# 3. A […] diazanon solution was prepared using the rotifer medium solution, so as to maintain water quality parameters such as pH, O2, alkalinity, salinity, and temperature as constant as possible. A 20 μl amount of the diazanon solution was added to test sample.
# 4. After a 5 minute incubation, 20 μl of a 40×10^6 beads/ml solution of crimson fluospheres was added to both the reference and test samples. The time was noted as t=0.
# 5. Using two identical syringes connected with a luer union to a 100 μm piece of nylon tubing terminated with a 20 μm plankton filter, a 50 μl sample was extracted from the reference and test samples. In both cases, the organisms were filtered out from the bead solution.
# 6. The reference and test samples were successively passed through the test chamber using the syringe pump at a flow rate of 15 μl/min. […]
# Each data file was retrieved, using TOXANA™, a time series data analysis software program. […] An assessment of the signal baseline mean and variance values (where no peak is detected) was made for each file. […]
# The number of peaks with an intensity above Td were calculated for each file, as well as the average peak intensity, the average peak width, and the average peak area.
compound,measurement,setting,value
CCOP(=S)(OCC)Oc1cc(C)nc(C(C)C)n1 [diazanon],feeding rate reduced by a factor (vs control sample),"exposure to 1 ppm of diazanon, 500 rotifers/ml, FIG. 7B",30
same,ingestion rate per organism,"test sample containing 1 ppm of diazanon, 500 rotifers/ml, 5 minute incubation, FIG. 7B",10^−3 beads/sec
same,feeding rate,"test sample containing 1 ppm of diazanon, 600 rotifers/ml, FIG. 7C",less than 0.05 beads/min
